Results as given in patent US20150315188A1, “COMPOUNDS AND METHODS FOR TREATMENT OF HYPERTENSION” (MEDIVATION TECHNOLOGIES, INC., priority 2012, published 2015).

What was measured:
Parameters in all cases: purchased Milipore (Millipore)
[1] = biological target: T1, Human adrenergic α1B receptor (Homo sapiens, UniProt P35368); test: Radioligand binding, adrenergic α1B (Protocol Group B); conditions: Protocol Group B; for Percentage inhibition of ligand binding, Adrenergic α1B (0.1 μM): 0.1 μM compound; for Percentage inhibition of ligand binding, Adrenergic α1B (0.3 μM): 0.3 μM compound; for Ki: estimated Ki
T1 sequence (P35368 1-520): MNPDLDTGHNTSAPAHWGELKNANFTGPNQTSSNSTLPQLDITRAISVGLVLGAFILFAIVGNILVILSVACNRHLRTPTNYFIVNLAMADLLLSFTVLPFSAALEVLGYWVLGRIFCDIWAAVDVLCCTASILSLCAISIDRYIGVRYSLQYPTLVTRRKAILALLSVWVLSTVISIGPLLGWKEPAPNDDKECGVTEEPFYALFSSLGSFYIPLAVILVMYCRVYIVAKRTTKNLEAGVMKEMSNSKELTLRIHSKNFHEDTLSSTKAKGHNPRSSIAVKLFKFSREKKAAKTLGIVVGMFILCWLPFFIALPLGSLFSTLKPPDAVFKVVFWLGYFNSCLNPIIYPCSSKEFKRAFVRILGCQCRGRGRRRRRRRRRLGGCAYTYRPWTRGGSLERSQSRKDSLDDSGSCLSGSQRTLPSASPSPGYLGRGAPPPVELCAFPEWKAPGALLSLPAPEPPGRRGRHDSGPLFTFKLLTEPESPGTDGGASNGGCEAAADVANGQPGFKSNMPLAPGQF
Procedure, shortened: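 Values are percent inhibition of specific [3H]prazosin (0.3 nM) binding or estimated Ki, from filtration counting. Human α1B recombinant membranes, Tris-HCl pH 7.4 buffer with MgCl2 and EDTA, 60 min at 25 °C, 1% DMSO vehicle; 10 μM prazosin defined nonspecific binding.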

[2] = biological target: T2, Human adrenergic α2B receptor (Homo sapiens, UniProt P18089); test: Radioligand binding, adrenergic α2B (Protocol Group B); conditions: for Percentage inhibition of ligand binding, Adrenergic α2B (10 nM): 10 nM compound, 0.01 µM; for Percentage inhibition of ligand binding, Adrenergic α2B (30 nM): 30 nM compound, 0.03 µM; for Ki: estimated Ki, read-out: Ki α2B
T2 sequence (P18089 1-450): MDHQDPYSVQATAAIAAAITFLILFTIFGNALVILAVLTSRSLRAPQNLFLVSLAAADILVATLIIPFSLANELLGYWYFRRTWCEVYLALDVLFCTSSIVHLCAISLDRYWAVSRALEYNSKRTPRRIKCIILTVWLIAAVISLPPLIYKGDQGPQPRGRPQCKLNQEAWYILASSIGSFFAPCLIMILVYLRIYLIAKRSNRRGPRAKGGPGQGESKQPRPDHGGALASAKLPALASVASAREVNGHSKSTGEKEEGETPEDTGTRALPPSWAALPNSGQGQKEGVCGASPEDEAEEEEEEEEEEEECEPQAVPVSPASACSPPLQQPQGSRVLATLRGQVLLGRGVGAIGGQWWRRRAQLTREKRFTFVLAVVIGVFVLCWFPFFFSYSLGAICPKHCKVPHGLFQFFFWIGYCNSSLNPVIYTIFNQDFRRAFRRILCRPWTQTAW
Procedure, shortened: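 Compounds at various concentrations in 1% DMSO were tested on recombinant membranes in Tris-HCl pH 7.4 buffer containing MgCl2, CaCl2 and 0.2% BSA.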

[3] = biological target: T3, Human adrenergic α2A receptor (Homo sapiens, UniProt P08913); test: Radioligand binding, adrenergic α2A (Protocol Group B); conditions: Protocol Group B; for Percentage inhibition of ligand binding, Adrenergic α2A (0.1 μM): 0.1 μM compound; for Percentage inhibition of ligand binding, Adrenergic α2A (0.3 μM): 0.3 μM compound; for Ki: estimated Ki
T3 sequence (P08913 1-465): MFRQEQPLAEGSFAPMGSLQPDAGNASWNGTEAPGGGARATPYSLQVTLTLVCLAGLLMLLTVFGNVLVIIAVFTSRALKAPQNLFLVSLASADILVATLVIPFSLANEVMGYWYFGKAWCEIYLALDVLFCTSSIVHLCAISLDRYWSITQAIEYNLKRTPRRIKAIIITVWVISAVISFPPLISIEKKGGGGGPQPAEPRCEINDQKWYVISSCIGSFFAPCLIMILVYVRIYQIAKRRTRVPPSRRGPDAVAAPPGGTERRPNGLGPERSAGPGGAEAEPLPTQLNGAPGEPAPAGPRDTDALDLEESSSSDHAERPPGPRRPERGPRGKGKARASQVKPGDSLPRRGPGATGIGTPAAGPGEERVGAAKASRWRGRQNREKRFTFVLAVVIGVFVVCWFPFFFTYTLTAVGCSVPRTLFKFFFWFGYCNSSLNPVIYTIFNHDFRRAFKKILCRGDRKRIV
Procedure, shortened: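 Compounds (1% DMSO vehicle, various concentrations) competed against 2 nM [^3H]MK-912 on recombinant receptor membranes for 60 min at 25° C, Tris-HCl pH 7.4 buffer with Mg2+, Ca2+, BSA. Bound radioligand filtered and counted; 10 μM rauwolscine set nonspecific binding. Values: percent inhibition of specific binding or estimated Ki.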

[4] = 0.1 μM compound, Protocol Group B

SMILES | Percentage inhibition of ligand binding, Adrenergic α1B (0.1 μM) [1] | Percentage inhibition of ligand binding, Adrenergic α1B (0.3 μM) [1] | Ki [1] | Percentage inhibition of ligand binding, Adrenergic α2B (10 nM) ([2]; Protocol Group B) | Percentage inhibition of ligand binding, Adrenergic α2B (30 nM) ([2]; Protocol Group B) | Percentage inhibition of ligand binding, Adrenergic α2B (0.1 μM) [2, 4] | Ki ([2]; Protocol Group B) | Percentage inhibition of ligand binding, Adrenergic α2A (0.1 μM) [3] | Percentage inhibition of ligand binding, Adrenergic α2A (0.3 μM) [3] | Ki [3] | Percentage inhibition of ligand binding, Adrenergic α2B, 0.1 nM ([2]; 0.1 nM compound, concentration series, 0.0001 µM) | inhibition at 0.1 µM ([2]; 0.1 μM compound, Protocol Group B, read-out: Percentage inhibition of ligand binding, Adrenergic α2B (0.1 μM))
Cc1cc(F)cc2c3c(n(CC(C)(O)c4cccnc4)c12)CCN1CCCC31 (single isomer, unassigned) [75a] | −1% | 12% |  | 8% | 40% |  |  | 3% | 22% |  |  | 87%
Cc1cc(Cl)c2c(c1)c1c(n2CC(C)(O)c2ccncc2)CCN2CCCC12 (single isomer, unassigned) [91b] | 43% | 68% | 38.2 nM | 95% | 97% |  | 0.93 nM | 67% | 86% | 28.4 nM |  | 
Cc1ccc2c(c1)c1c(n2CC(C)(O)c2ccc(F)nc2)CCN2CCCC12 (single isomer, unassigned) [6a] |  |  | 25 nM |  |  |  | 1.4 nM |  |  | 55 nM |  | 

More lines, now with the values ahead:

Percentage inhibition of ligand binding, Adrenergic α1B (0.1 μM) [1] | Percentage inhibition of ligand binding, Adrenergic α1B (0.3 μM) [1] | Ki [1] | Percentage inhibition of ligand binding, Adrenergic α2B (10 nM) ([2]; Protocol Group B) | Percentage inhibition of ligand binding, Adrenergic α2B (30 nM) ([2]; Protocol Group B) | Percentage inhibition of ligand binding, Adrenergic α2B (0.1 μM) [2, 4] | Ki ([2]; Protocol Group B) | Percentage inhibition of ligand binding, Adrenergic α2A (0.1 μM) [3] | Percentage inhibition of ligand binding, Adrenergic α2A (0.3 μM) [3] | Ki [3] | Percentage inhibition of ligand binding, Adrenergic α2B, 0.1 nM ([2]; 0.1 nM compound, concentration series, 0.0001 µM) | inhibition at 0.1 µM ([2]; 0.1 μM compound, Protocol Group B, read-out: Percentage inhibition of ligand binding, Adrenergic α2B (0.1 μM)) | SMILES
27% | 45% | 199 nM | 86% | 97% | 100% | 1.3 nM | 32% | 48% | 154 nM |  |  | CCCOC(Cn1c2c(c3cc(C)ccc31)CN(C)CC2)c1ccncc1 (single isomer, unassigned) [42b]
85% | 95% | 4.5 nM | 98% | 100% | 96% | 1.1 nM | 80% | 89% | 6.8 nM | 18% |  | Cc1ccc2c(c1)c1c(n2CC(O)c2ccncc2F)CCN2CCCC12 (single isomer, unassigned) [14b]
57% | 80% | 14 nM | 82% | 81% |  | 1.45 nM | 82% | 84% | 9.9 nM |  |  | Cc1ccc2c(c1)c1c(n2CC(OCC2CCC2)c2ccncc2)CCN2CCCC12 (single isomer, unassigned) [138b]
